Measurements from ChEMBL document CHEMBL3856190, “Novel spirothiazamenthane inhibitors of the influenza A M2 proton channel” (Eur J Med Chem, 2016).
Calls of active or inactive are those of the source. No cut-off for these calls is given here.

What was measured:
MDCK [1] = assay: Antiviral activity against amantadine-resistant Influenza A virus A/Puerto Rico/8/34 expressing M2 proton channel S31N mutant infected in MDCK cells assessed as inhibition of viral replication at 0.001 to 100 uM measured after 10 hrs by miniplaque assay; type: functional, cell-based; settings: Influenza A virus (A/Puerto Rico/8/1934(H1N1))
MDCK [2] = assay: Antiviral activity against amantadine-resistant Influenza A virus A/Puerto Rico/8/34 expressing M2 proton channel V27A mutant infected in MDCK cells assessed as inhibition of viral replication at 100 uM measured after 10 hrs by miniplaque assay; type: functional, cell-based; settings: Influenza A virus (A/Puerto Rico/8/1934(H1N1))

Row | SMILES | inhibition (MDCK [1]) | inhibition (MDCK [2])
1 | CCCCCCCCN1CCN(CCNC2=NC(C)(C)[C@]3(CC[C@H](C)CC3)S2)CC1 | Active | –
2 | CCCCN1CCN(CCNC2=NC(C)(C)[C@]3(CC[C@H](C)CC3)S2)CC1 | Active | Active
3 | CCOCCN1CCN(CCNC2=NC(C)(C)[C@]3(CC[C@H](C)CC3)S2)CC1 | Active | Active
4 | CC1(C)N=C(NCCN2CCN(Cc3ccccc3)CC2)S[C@]12CC[C@@H](C)CC2 | Active | Active
5 | CC(C)CCN1CCN(CCNC2=NC(C)(C)[C@]3(CC[C@H](C)CC3)S2)CC1 | Active | Active
6 | CN(C)CCN1CCN(CCNC2=NC(C)(C)[C@]3(CC[C@H](C)CC3)S2)CC1 | Active | –
7 | CN1CCN(CCNC2=NC(C)(C)[C@]3(CC[C@H](C)CC3)S2)CC1 | Active | –
